In PubChem BioAssay AID248 (DTP/NCI, 2004):
Where “and” joins values, the source holds several entries; their conditions need not be identical. Identical values can stand only once. Toxic doses and inconclusive results are not listed. No stated cut-off is given here; in the data, active means T/C of 150% or more; inactive means T/C below 125%.

System: L1210 leukemia ip in BDF1 mice, survival T/C
Test: NCI In Vivo Anticancer Drug Screen. Data for tumor model L1210 Leukemia (intraperitoneal) in B6D2F1 (BDF1) mice
Conditions: higher = longer survival
Procedure, shortened: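 Transplantable tumor model; survival measured in treated vs vehicle control mice. Value = treated/control.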

Measured: T/C

CC[C@]1(O)C[C@H]2CN(CCc3c([nH]c4ccccc34)[C@@](C(=O)OC)(c3cc4c(cc3OC)N(C=O)[C@H]3[C@@](O)(C(=O)OC)[C@H](OC(C)=O)[C@]5(CC)C=CCN6CC[C@]43[C@@H]65)C2)C1
inactive: endpoint: mean survival time, dose: 0.03 mg/kg/injection, schedule: Q01DX015 (ip), vehicle: saline 108 % of control | endpoint: mean survival time, dose: 0.03 mg/kg/injection, schedule: Q03HX032 (ip), vehicle: saline 107 % of control | endpoint: mean survival time, dose: 0.03 mg/kg/injection, schedule: Q## X032 (ip), vehicle: saline 107 % of control | endpoint: mean survival time, dose: 0.04 mg/kg/injection, schedule: Q03HX032 (ip), vehicle: saline 109 % of control | endpoint: mean survival time, dose: 0.04 mg/kg/injection, schedule: Q## X032 (ip), vehicle: saline 109 % of control | endpoint: mean survival time, dose: 0.05 mg/kg/injection, schedule: Q01DX005 (ip), vehicle: saline 101 % of control | endpoint: mean survival time, dose: 0.05 mg/kg/injection, schedule: Q01DX005 (iv), vehicle: saline 101 % of control | endpoint: mean survival time, dose: 0.05 mg/kg/injection, schedule: Q01DX015 (ip), vehicle: saline 108 % of control | endpoint: mean survival time, dose: 0.06 mg/kg/injection, schedule: Q01DX Z (ip), vehicle: water 105 % of control | endpoint: mean survival time, dose: 0.06 mg/kg/injection, schedule: Q## X032 (ip), vehicle: saline 113 % of control | endpoint: mean survival time, dose: 0.07 mg/kg/injection, schedule: Q03HX032 (ip), vehicle: saline 113 % of control | endpoint: mean survival time, dose: 0.08 mg/kg/injection, schedule: Q04DX002 (ip), vehicle: saline 102 % of control and 104 % of control | endpoint: mean survival time, dose: 0.1 mg/kg/injection, schedule: Q01DX005 (ip), vehicle: saline 116 % of control | endpoint: mean survival time, dose: 0.1 mg/kg/injection, schedule: Q01DX005 (iv), vehicle: saline 100 % of control | endpoint: mean survival time, dose: 0.12 mg/kg/injection, schedule: Q01DX Z (ip), vehicle: water 108 % of control | endpoint: mean survival time, dose: 0.15 mg/kg/injection, schedule: Q01DX015 (ip), vehicle: saline 114 % of control | endpoint: mean survival time, dose: 0.15 mg/kg/injection, schedule: Q04DX002 (ip), vehicle: saline 100 % of control and 105 % of control | endpoint: mean survival time, dose: 0.2 mg/kg/injection, schedule: Q01DX005 (ip), vehicle: saline 115 % of control | endpoint: mean survival time, dose: 0.2 mg/kg/injection, schedule: Q01DX005 (iv), vehicle: saline 106 % of control | endpoint: mean survival time, dose: 0.2 mg/kg/injection, schedule: Q04DX002 (ip), vehicle: saline 104 % of control | endpoint: mean survival time, dose: 0.23 mg/kg/injection, schedule: Q04DX003 (ip), vehicle: saline 110 % of control | endpoint: mean survival time, dose: 0.25 mg/kg/injection, schedule: Q01DX Z (ip), vehicle: water 115 % of control | endpoint: mean survival time, dose: 0.39 mg/kg/injection, schedule: Q04DX002 (ip), vehicle: saline 110 % of control | endpoint: mean survival time, dose: 0.4 mg/kg/injection, schedule: Q01DX005 (ip), vehicle: saline 105 % of control | endpoint: mean survival time, dose: 0.4 mg/kg/injection, schedule: Q01DX005 (iv), vehicle: saline 100 % of control | endpoint: mean survival time, dose: 0.5 mg/kg/injection, schedule: Q01DX009 (ip), vehicle: saline 105 % of control | endpoint: mean survival time, dose: 0.5 mg/kg/injection, schedule: Q01DX Z (ip), vehicle: saline 97 % of control | endpoint: mean survival time, dose: 0.5 mg/kg/injection, schedule: Q01DX Z (ip), vehicle: water 108 % of control | endpoint: mean survival time, dose: 0.5 mg/kg/injection, schedule: Q04DX004 (ip), vehicle: saline 110 % of control | endpoint: mean survival time, dose: 0.75 mg/kg/injection, schedule: Q01DX015 (ip), vehicle: saline 113 % of control | endpoint: mean survival time, dose: 0.8 mg/kg/injection, schedule: Q01DX001 (ip), vehicle: saline 115 % of control | endpoint: mean survival time, dose: 0.8 mg/kg/injection, schedule: Q01DX005 (iv), vehicle: saline 116 % of control | endpoint: mean survival time, dose: 0.8 mg/kg/injection, schedule: Q01DX015 (ip), vehicle: saline 108 % of control | endpoint: mean survival time, dose: 1.0 mg/kg/injection, schedule: Q01DX Z (ip), vehicle: water 95 % of control and 99 % of control | endpoint: mean survival time, dose: 1.0 mg/kg/injection, schedule: Q04DX004 (ip), vehicle: saline 115 % of control | endpoint: mean survival time, dose: 1.12 mg/kg/injection, schedule: Q01DX015 (ip), vehicle: saline 105 % of control | endpoint: mean survival time, dose: 1.5 mg/kg/injection, schedule: Q01DX001 (ip), vehicle: water 109 % of control and 112 % of control | endpoint: mean survival time, dose: 1.5 mg/kg/injection, schedule: Q04DX002 (ip), vehicle: saline 116 % of control | endpoint: mean survival time, dose: 6.0 mg/kg/injection, schedule: Q01DX001 (ip), vehicle: water 107 % of control | endpoint: mean survival time, dose: 3.2 micrograms/kg/injection, schedule: Q01DX015 (ip), vehicle: saline 94 % of control | endpoint: mean survival time, dose: 6.3 micrograms/kg/injection, schedule: Q01DX015 (ip), vehicle: saline 97 % of control | endpoint: mean survival time, dose: 11.0 micrograms/kg/injection, schedule: Q01DX009 (ip), vehicle: saline 102 % of control and 109 % of control | endpoint: mean survival time, dose: 12.5 micrograms/kg/injection, schedule: Q01DX015 (ip), vehicle: saline 98 % of control | endpoint: mean survival time, dose: 15.6 micrograms/kg/injection, schedule: Q03HX008 (ip), vehicle: clinical formulation 104 % of control | endpoint: mean survival time, dose: 15.6 micrograms/kg/injection, schedule: Q03HX016 (ip), vehicle: clinical formulation 100 % of control | endpoint: mean survival time, dose: 15.6 micrograms/kg/injection, schedule: Q03HX024 (ip), vehicle: clinical formulation 102 % of control | endpoint: mean survival time, dose: 23.0 micrograms/kg/injection, schedule: Q01DX009 (ip), vehicle: saline 98 % of control and 100 % of control | endpoint: mean survival time, dose: 25.0 micrograms/kg/injection, schedule: Q01DX015 (ip), vehicle: saline 112 % of control | endpoint: mean survival time, dose: 31.2 micrograms/kg/injection, schedule: Q01DX009 (ip), vehicle: clinical formulation 102 % of control | endpoint: mean survival time, dose: 31.2 micrograms/kg/injection, schedule: Q03HX008 (ip), vehicle: clinical formulation 106 % of control | endpoint: mean survival time, dose: 31.2 micrograms/kg/injection, schedule: Q03HX016 (ip), vehicle: clinical formulation 105 % of control | endpoint: mean survival time, dose: 47.0 micrograms/kg/injection, schedule: Q01DX009 (ip), vehicle: saline 109 % of control and 114 % of control | endpoint: mean survival time, dose: 50.0 micrograms/kg/injection, schedule: Q01DX015 (ip), vehicle: saline 113 % of control | endpoint: mean survival time, dose: 62.5 micrograms/kg/injection, schedule: Q03HX008 (ip), vehicle: clinical formulation 112 % of control | endpoint: mean survival time, dose: 62.5 micrograms/kg/injection, schedule: Q03HX016 (ip), vehicle: clinical formulation 105 % of control | endpoint: mean survival time, dose: 62.5 micrograms/kg/injection, schedule: Q04DX003 (ip), vehicle: clinical formulation 113 % of control | endpoint: mean survival time, dose: 100.0 micrograms/kg/injection, schedule: Q01DX015 (ip), vehicle: saline 103 % of control | endpoint: mean survival time, dose: 125.0 micrograms/kg/injection, schedule: Q01DX001 (ip), vehicle: clinical formulation 104 % of control | endpoint: mean survival time, dose: 125.0 micrograms/kg/injection, schedule: Q04DX003 (ip), vehicle: clinical formulation 115 % of control | endpoint: mean survival time, dose: 125.0 micrograms/kg/injection, schedule: Q08DX002 (ip), vehicle: clinical formulation 101 % of control | endpoint: mean survival time, dose: 200.0 micrograms/kg/injection, schedule: Q01DX015 (ip), vehicle: saline 115 % of control | endpoint: mean survival time, dose: 216.0 micrograms/kg/injection, schedule: Q04DX003 (ip), vehicle: saline 116 % of control | endpoint: mean survival time, dose: 250.0 micrograms/kg/injection, schedule: Q01DX001 (ip), vehicle: clinical formulation 106 % of control | endpoint: mean survival time, dose: 250.0 micrograms/kg/injection, schedule: Q03HX024 (ip), vehicle: clinical formulation 98 % of control | endpoint: mean survival time, dose: 250.0 micrograms/kg/injection, schedule: Q04DX003 (ip), vehicle: clinical formulation 116 % of control | endpoint: mean survival time, dose: 250.0 micrograms/kg/injection, schedule: Q08DX002 (ip), vehicle: clinical formulation 108 % of control | endpoint: mean survival time, dose: 500.0 micrograms/kg/injection, schedule: Q01DX001 (ip), vehicle: clinical formulation 113 % of control | endpoint: mean survival time, dose: 500.0 micrograms/kg/injection, schedule: Q08DX002 (ip), vehicle: clinical formulation 106 % of control | endpoint: mean survival time, dose: 600.0 micrograms/kg/injection, schedule: Q04DX003 (ip), vehicle: saline 112 % of control | endpoint: mean survival time, dose: 740.0 micrograms/kg/injection, schedule: Q01DX009 (ip), vehicle: saline 92 % of control and 102 % of control | endpoint: mean survival time, dose: 1000.0 micrograms/kg/injection, schedule: Q08DX002 (ip), vehicle: clinical formulation 108 % of control | endpoint: mean survival time, dose: 2000.0 micrograms/kg/injection, schedule: Q01DX001 (ip), vehicle: clinical formulation 116 % of control | endpoint: median survival time, dose: 0.02 mg/kg/injection, schedule: Q01DX001 (ip), vehicle: water 103 % of control | endpoint: median survival time, dose: 0.03 mg/kg/injection, schedule: Q01DX001 (ip), vehicle: water 103 % of control | endpoint: median survival time, dose: 0.05 mg/kg/injection, schedule: Q01DX001 (ip), vehicle: water 108 % of control | endpoint: median survival time, dose: 0.14 mg/kg/injection, schedule: Q01DX009 (ip), vehicle: water 114 % of control | endpoint: median survival time, dose: 0.25 mg/kg/injection, schedule: Q01DX002 (ip), vehicle: water 110 % of control | endpoint: median survival time, dose: 0.25 mg/kg/injection, schedule: Q01DX009 (ip), vehicle: water 115 % of control | endpoint: median survival time, dose: 0.4 mg/kg/injection, schedule: Q01DX001 (ip), vehicle: saline 111 % of control | endpoint: median survival time, dose: 0.4 mg/kg/injection, schedule: Q01DX009 (ip), vehicle: water 100 % of control and 103 % of control | endpoint: median survival time, dose: 0.5 mg/kg/injection, schedule: Q01DX001 (ip), vehicle: water 99 % of control and 100 % of control | endpoint: median survival time, dose: 1.0 mg/kg/injection, schedule: Q01DX001 (ip), vehicle: water 102 % of control | endpoint: median survival time, dose: 2.0 mg/kg/injection, schedule: Q01DX001 (ip), vehicle: water 116 % of control | endpoint: median survival time, dose: 2.0 mg/kg/injection, schedule: Q01DX002 (ip), vehicle: water 108 % of control
